ChEMBL document CHEMBL1201862, “PubChem BioAssay data set” (2004)
“And” between values parts separate entries of the source, which are not always exact repeats. Identical values can stand only once. The source made the active and inactive calls.

What was measured:
[1] = inhibitors of intracellular T. cruzi replication, confirmation, NIH3T3 host cells, beta-gal luminescence (AID 2044); type: functional, cell-based;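 note: intracellular parasites grown in NIH/3T3 mouse fibroblasts as host cells; luminescent beta-galactosidase reporter signal from transgenic T. cruzi replicating inside host cells; inhibitors lower the luminescence signal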
[2] = Luminescence Cell-Based Dose Retest to Confirm Inhibitors of Cancer Stem Cells. [Related pubchem assays (depositor defined):AID2717, AID2721]; type: functional, Homo sapiens; details: Homo sapiens
[3] = cytotoxicity toward NIH3T3 fibroblasts, dose response, counter-screen, cell-based, ATP luminescence, mouse fibroblasts (AID 2010); type: functional;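 note: cells exposed to compound for about 90 hours before reading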
[4] = inhibitors of SNCA 5'UTR-driven reporter translation, confirmation, H4 neuroglioma cells, luminescence (AID 1988); type: functional, cell-based
[5] = Luminescence Cell-Based Dose Response HTS to Identify Inhibitors of 5'UTR Stem-Loop Driven Prion Protein mRNA Translation in H4 Neuroglioblastoma Cells. [Related pubchem assays: 1827 (Project Summary), 1813 (Primary HTS)]; type: functional
[6] = inhibitors of firefly luciferase expression or activity, dose response, H4 neuroglioma cells, luminescence (AID 1990); type: functional, cell-based
[7] = molecular target: T1, Rac GTPase-activating protein 1 (Homo sapiens, UniProt Q9H0H5); assay: MgcRacGAP GTPase-activating activity inhibitors, confirmation, biochemical, ADP Hunter fluorescence, primary and confirmatory (AID 624330); type: functional
T1 sequence (Q9H0H5 whole entry): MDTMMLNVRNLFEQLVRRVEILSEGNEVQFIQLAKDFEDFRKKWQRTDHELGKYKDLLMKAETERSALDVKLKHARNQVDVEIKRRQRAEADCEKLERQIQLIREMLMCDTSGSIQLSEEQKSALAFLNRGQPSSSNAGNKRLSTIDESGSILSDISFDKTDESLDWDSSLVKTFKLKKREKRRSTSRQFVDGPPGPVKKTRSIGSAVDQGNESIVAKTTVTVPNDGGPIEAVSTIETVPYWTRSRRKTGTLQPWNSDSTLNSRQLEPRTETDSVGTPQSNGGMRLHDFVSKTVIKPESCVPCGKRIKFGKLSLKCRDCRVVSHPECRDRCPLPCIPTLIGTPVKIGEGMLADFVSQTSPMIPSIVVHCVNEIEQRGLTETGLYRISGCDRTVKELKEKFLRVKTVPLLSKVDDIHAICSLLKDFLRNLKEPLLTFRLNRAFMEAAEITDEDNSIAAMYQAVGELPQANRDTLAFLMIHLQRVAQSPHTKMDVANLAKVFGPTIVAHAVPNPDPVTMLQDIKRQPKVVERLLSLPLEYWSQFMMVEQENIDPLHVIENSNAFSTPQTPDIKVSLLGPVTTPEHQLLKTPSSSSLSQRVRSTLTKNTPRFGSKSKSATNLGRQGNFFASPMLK

Cytochrome P450 3A4 = Cytochrome P450 3A4 (Homo sapiens, UniProt P08684);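 note: CYP3A4 tested as one member of a cytochrome P450 panel screen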
Cytochrome P450 2C19 = Cytochrome P450 2C19 (Homo sapiens, UniProt P33261); assay: Cytochrome panel assay with activity outcomes. Panel member name: p450-cyp2c19 Compounds with AC50 equal or less than 10 uM are considered active; type: functional
[8] = tested on: Streptococcus sp. 'group A'; assay: growth inhibition of control SK(-) GAS strain, dose response, counter-screen for streptokinase expression inhibitor project, luminescence, kanamycin, BacTiterGlo, confirmation (AID 1900); type: functional, organism-based; details: read-out: EC50
Streptococcus = assay: Group A Streptococcus viability loss, dose response, counter-screen for streptokinase expression inhibitor project, luminescence, BacTiterGlo (AID 1915); type: functional, organism-based;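 note: potency for reduction of bacterial viability or growth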

Cytochrome P450 3A4, sequence (P08684 whole entry): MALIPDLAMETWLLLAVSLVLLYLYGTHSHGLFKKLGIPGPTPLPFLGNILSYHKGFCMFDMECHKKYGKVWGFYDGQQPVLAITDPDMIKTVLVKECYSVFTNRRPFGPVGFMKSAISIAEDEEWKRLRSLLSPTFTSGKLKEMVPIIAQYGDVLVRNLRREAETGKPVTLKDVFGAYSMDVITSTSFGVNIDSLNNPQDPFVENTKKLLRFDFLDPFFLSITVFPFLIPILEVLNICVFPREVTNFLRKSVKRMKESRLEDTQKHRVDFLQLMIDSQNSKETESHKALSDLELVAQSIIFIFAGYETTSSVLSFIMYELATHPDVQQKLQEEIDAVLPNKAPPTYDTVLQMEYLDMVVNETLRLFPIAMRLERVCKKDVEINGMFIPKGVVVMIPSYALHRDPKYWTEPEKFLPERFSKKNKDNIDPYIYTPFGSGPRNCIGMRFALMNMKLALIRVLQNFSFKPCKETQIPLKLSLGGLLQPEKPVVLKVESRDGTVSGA
Cytochrome P450 2C19, sequence (P33261 whole entry): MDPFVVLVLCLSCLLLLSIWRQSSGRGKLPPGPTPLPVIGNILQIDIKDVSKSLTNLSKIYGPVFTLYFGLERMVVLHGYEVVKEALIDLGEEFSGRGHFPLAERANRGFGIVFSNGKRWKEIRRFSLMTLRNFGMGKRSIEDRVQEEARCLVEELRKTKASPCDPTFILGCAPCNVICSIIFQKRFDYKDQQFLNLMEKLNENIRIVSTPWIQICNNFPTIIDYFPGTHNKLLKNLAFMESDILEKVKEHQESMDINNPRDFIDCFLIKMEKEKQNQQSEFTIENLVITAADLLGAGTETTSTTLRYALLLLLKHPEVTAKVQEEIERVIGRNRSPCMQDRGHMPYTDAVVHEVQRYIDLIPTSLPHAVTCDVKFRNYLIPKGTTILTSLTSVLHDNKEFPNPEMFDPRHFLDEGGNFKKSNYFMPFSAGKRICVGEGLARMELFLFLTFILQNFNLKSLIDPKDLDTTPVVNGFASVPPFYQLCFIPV

## Cc1ccc(Cl)cc1NC(=S)N/N=C/c1cccc2ccccc12
[1]
  EC50: 2.97 µM (active)
[2]
  AC50: 0.167 µM (active)
[3]
  EC50: 0.425 µM (active)

## Cc1cc2c(c(=O)n1C1CC1)C(c1cccc(Cl)c1)C(C#N)=C(N)O2 (stereo not given)
[4]
  EC50: > 120 µM (not active)
[5]
  EC50: > 120 µM (not active)
[6]
  EC50: > 120 µM (not active)

## O=C(NCc1ccco1)c1cc(-c2ccc3c(c2)OCO3)on1
[2]
  AC50: 1.14 µM (active)

## Nc1ccc(Oc2ccccc2-c2ccccc2)cc1
[4]
  EC50: 5.17 µM (active)
[5]
  EC50: 9.75 µM (active)
[6]
  EC50: 2.08 µM (active)

## CCOC(=O)C1=C(c2ccccc2)NC(SCC(=O)Nc2ccc(C)cc2)=C(C#N)C1c1ccco1 (stereo not given)
[1]
  EC50: 2.91 µM (active)
[3]
  EC50: > 60 µM (not active)

## COc1ccc(CN2CCN(Cc3ccccc3F)CC2)cc1OC
[7]
  IC50: 85.5 µM (active)

## COCC(=O)N1CCC[C@@]2(CCN(C(=O)Nc3cccc(F)c3)C2)C1
Cytochrome P450 3A4
  AC50: 25.1 µM (inconclusive)

## Cc1ccc(NC(=O)CN2CCC(NC(=O)Cc3ccccc3)CC2)cc1C
Cytochrome P450 3A4
  AC50: 14.1 µM (inconclusive)

## COCCNc1nc(-c2ccccc2CN(C)C)nc2ccccc12
Cytochrome P450 3A4
  AC50: 15.8 µM (inconclusive)

## O=C(CSC(=S)N1CCCCC1)c1ccccc1
[4]
  EC50: 10.8 µM (active)
[5]
  EC50: > 60 µM (not active)

## COc1ccc(Oc2ncc3nc(-c4ccc(Cl)cc4)c(=O)n(C)c3n2)cc1
Cytochrome P450 3A4
  AC50: 5.01 µM (inconclusive)

## Cc1nn(S(=O)(=O)c2ccc([N+](=O)[O-])cc2)c(C)c1Sc1ccccc1
[1]
  EC50: 1.16 µM (active)
[3]
  EC50: > 60 µM (not active)

## CCN(CC)c1nc(Nc2ccc(Cl)cc2)nc(OCC#N)n1
[4]
  EC50: 16 µM (active)
[5]
  EC50: 14.6 µM (active)
[6]
  EC50: 15 µM (active)

## C=C1SC(Nc2c(C)cccc2C)=NC12CCCCC2
[1]
  EC50: 0.795 µM (active)
[3]
  EC50: 4.83 µM (active)

## CCOc1ccccc1-c1nc(-c2ccc(NC(=O)Cc3ccccc3OC)cc2)no1
[1]
  EC50: 1.21 µM (active)
[3]
  EC50: 10.2 µM (active)

## O=c1c2c3c(sc2nc(NCCO)n1Cc1ccco1)CCCCC3
[2]
  AC50: 1.8 µM (active)

## C/C(CCC(=O)OC[C@@H]1O[C@H](C#Cc2ccccc2)C=C[C@@H]1Oc1ccc(C)cc1)=N/OC[C@@H](O)[C@H]1O[C@H]2OC(C)(C)O[C@H]2[C@@H]1O
Cytochrome P450 2C19; read-out: AC50
  AC50: 6.31 µM (inconclusive)

## CC1(C)Cc2c(sc3c2c(=N)n(Cc2ccco2)c(=O)n3Cc2ccc(Cl)cc2)CO1
[4]
  EC50: 13.8 µM (active)
[5]
  EC50: > 120 µM (not active)
[6]
  EC50: 14.2 µM (active)

## O=C1NC[C@@H](Cc2cccc3ccccc23)N(CC2(c3ccccc3)CC2)C1=O
[4]
  EC50: > 120 µM (not active)
[5]
  EC50: > 120 µM (not active)
[6]
  EC50: > 120 µM (not active)

## Cc1ccc2nc(O)c(C(c3nnnn3C(C)(C)C)N(Cc3ccco3)CC3CCCO3)cc2c1 (stereo not given)
[1]
  EC50: 3.14 µM (active)
[3]
  EC50: > 60 µM (not active)

## CCC(C)NS(=O)(=O)c1ccc(S(=O)(=O)N(CCc2ccc(OC)c(OC)c2)Cc2cccs2)cc1 (stereo not given)
[1]
  EC50: 1.72 µM (active)
[3]
  EC50: > 60 µM (not active)

## CCCC(C(=O)OCCN(CC)CC)(c1ccccc1)c1ccccc1 [PROADIFEN]
Cytochrome P450 2C19; read-out: AC50
  AC50: 7.94 µM (inconclusive) and 3.98 µM (inconclusive)

## CCOC(=O)Nc1ccc(OCc2nnc3c4ccccc4c(C)nn23)cc1
[8]
  EC50: < 0.06 µM (active)
Streptococcus
  EC50: 0.676 µM (active)

## CCc1c(C)c(C#N)c2nc3ccccc3n2c1N1CCN(c2cc(C)ccn2)CC1
Cytochrome P450 2C19; read-out: AC50
  AC50: 10 µM (inconclusive)

## CC(C)(CN1CCN(Cc2ccccc2)CC1)NS(=O)(=O)c1ccccc1
[2]
  AC50: 12.7 µM (active)

## O=C(c1ccco1)N1CCC2(CC1)CN(c1cccc(-c3ccccc3)c1)C2
Cytochrome P450 2C19; read-out: AC50
  AC50: 3.98 µM (inconclusive)

## Cc1c(-c2nc(N)nc(Nc3ccc(F)cc3)n2)oc2ccccc12
[1]
  EC50: 2.76 µM (active)
[3]
  EC50: 13.4 µM (active)

## CC(=O)c1c(/N=C/N(C)C)nc(C)nc1-c1ccccc1
Cytochrome P450 2C19; read-out: AC50
  AC50: 25.1 µM (inconclusive)

## Cc1ccc(C)c(NC(S)=NN=C(S)Nc2ccc(C(C)C)cc2)c1
[1]
  EC50: 2.69 µM (active)
[3]
  EC50: > 60 µM (not active)

## CN(C)c1ccc(C2CNC(c3ccc(Cl)c([N+](=O)[O-])c3)c3[nH]c4ccccc4c32)cc1 (stereo not given)
[1]
  EC50: 1.88 µM (active)
[3]
  EC50: > 60 µM (not active)

## COc1cccc(CN2CCCC(CNC(=O)c3ccc(F)cc3)C2)c1OC (stereo not given)
[1]
  EC50: 0.704 µM (active)
[3]
  EC50: > 60 µM (inconclusive)

## COC(=O)Nc1nc2cc(SC(C)C)ccc2[nH]1
Cytochrome P450 2C19; read-out: AC50
  AC50: 10 µM (inconclusive)

## CCCCN(CC)CCCNC(=O)c1cn(-c2ccc(OC)cc2)c(=O)c2ccccc12
[1]
  EC50: 0.496 µM (active)
[3]
  EC50: > 60 µM (not active)

## Cn1cnc2c(NCc3ccccc3)nc(NCCO)nc21 [OLOMOUCINE]
Cytochrome P450 3A4
  AC50: 15.8 µM (inconclusive)

## COc1cc(/C=N/N2CCN(c3ccccc3OC)CC2)ccc1O
[7]
  IC50: 36.7 µM (active)

## Cc1ccc(S(=O)(=O)c2c(N)n(/N=C/c3ccco3)c3nc4ccccc4nc23)cc1
[1]
  EC50: 1.8 µM (active)
[3]
  EC50: > 60 µM (not active)

## CC(C)CN1CC[C@@]2(CCCN(C(=O)c3ccco3)C2)C1
Cytochrome P450 3A4
  AC50: 12.6 µM (inconclusive)

## Cc1cc(C)cc(NC(=O)CSc2nc3c(oc4ccccc43)c(=O)n2-c2ccccc2)c1
[1]
  EC50: 1.26 µM (active)
[3]
  EC50: > 60 µM (inconclusive)

## COc1ccc(C(=O)N2CCN(C3CCN(Cc4ccccc4)CC3)CC2)cc1OC
[7]
  IC50: 93.1 µM (active)

## N#CCSc1nc2c(c(=O)n1Cc1ccco1)C1(CCCC1)Cc1ccccc1-2
[2]
  AC50: 0.686 µM (active)

## O=C(NC1CCCCC1)Oc1cc2oc(=O)sc2cc1Br
[4]
  EC50: > 120 µM (not active)
[5]
  EC50: > 120 µM (not active)
[6]
  EC50: > 120 µM (not active)

## CCN1CCN(CCOc2cccc(Oc3ccccc3)c2)CC1
[7]
  IC50: 106 µM (active)

## CO/C(O)=C1/C(C)=Nc2ncnn2C1c1cccnc1 (stereo not given)
Cytochrome P450 3A4
  AC50: 39.8 µM (inconclusive)

## COc1ccc(-n2nc(C(=O)NCC(=O)N3CCN(Cc4ccc5c(c4)OCO5)CC3)c3ccccc3c2=O)cc1OC
[4]
  EC50: > 120 µM (not active)
[5]
  EC50: > 120 µM (not active)
[6]
  EC50: 21.3 µM (active)

## CSc1nc2c(c(C(F)(F)F)n1)CC(C)CC2 (stereo not given)
Cytochrome P450 2C19; read-out: AC50
  AC50: 39.8 µM (inconclusive)

## COc1ccc(OC(=O)COc2cccc(C)c2)cc1
[7]
  IC50: 52.9 µM (active)

## COCCn1c(=O)c(-c2cccc(Cl)c2)nc2cncnc21
Cytochrome P450 3A4
  AC50: 15.8 µM (inconclusive)

## CN([C@@H](Cc1ccc(OS(=O)(=O)c2cccc3cnccc23)cc1)C(=O)N1CCN(c2ccccc2)CC1)S(=O)(=O)c1cccc2cnccc12
[1]
  EC50: 0.4 µM (active)
[3]
  EC50: 11.2 µM (active)

## Oc1nc2ccc(Cl)cc2c(-c2ccccc2)c1SC(=S)N1CCOCC1
[8]
  EC50: 0.827 µM (active)
Streptococcus
  EC50: 1.3 µM (active)

## O=C(CSc1[nH]cnc2ncnc1-2)Nc1nnc(SCc2ccc(Cl)c(Cl)c2)s1
[2]
  AC50: 7.23 µM (active)

## N#CCCn1c(=O)c(CCc2ccccc2)nc2cnc(Nc3ccccc3)nc21
Cytochrome P450 3A4
  AC50: 1 µM (inconclusive)

## NC(=O)CC(NC(=O)Cc1cccc2ccccc12)c1ccc(NCc2ccc(F)cc2)c([N+](=O)[O-])c1 (stereo not given)
[2]
  AC50: 5.46 µM (active)

## Nc1ccc2[nH]c(-c3cccnc3)nc2c1
[7]
  IC50: 155 µM (active)

## CCOc1ccc(N(C)Cc2cc(=O)oc3ccc(OC)cc23)cc1
[1]
  EC50: 0.798 µM (active)
[3]
  EC50: > 60 µM (not active)

## O=c1c(-c2cccc(F)c2)nc2cncnc2n1Cc1ccccc1
Cytochrome P450 3A4
  AC50: 10 µM (inconclusive)

## COc1ccc(OC)c(C(c2nnnn2C(C)(C)C)N2CCc3ccccc3C2)c1 (stereo not given)
[1]
  EC50: 2.77 µM (active)
[3]
  EC50: 5.8 µM (active)

## COc1ccc(C(=O)C[n+]2nc(CNc3ccc(Br)cc3)n3c2CCCCC3)cc1
[1]
  EC50: 0.898 µM (active)
[3]
  EC50: > 60 µM (not active)

## Cn1c(=O)c2c(nc(NCCNc3nc4c(c(=O)n(C)c(=O)n4C)n3C)n2C)n(C)c1=O
Cytochrome P450 2C19
  AC50: inconclusive

## CCCc1cc2c(n1Cc1ccc(C)cc1)C(C)C1CN(C(=O)c3ccccc3)C(C)(C(=O)OC)C21 (stereo not given)
Cytochrome P450 2C19; read-out: AC50
  AC50: 25.1 µM (inconclusive)
